Results taken from patent US20050132448A1, “Assay for beta cell toxic macrolides” (priority 2001, published 2005).

System: C57B1/6J mice
Experiment: Size and number of pancreatic islets after vATPase inhibitors
Type: in vivo
Details: for No. islets per mm^2 pancreas section / Median size: day 84, 5 daily doses of 12 ng/g body weight; for effect on islet number and size: i.p. 12 ng/gram body weight; for Median size: insulin-positive islets
Method: The effect of vATPase inhibitors on the size and number of pancreatic islets was analysed in C57B1/6J using either bafilomycin A1 (BA1) or concanamycin A (CMA). The effect of Streptozotocin, an islet beta-cell specific toxin produced by Streptomyces achromogenes was also examined, to enable comparison with the effect of vATPase inhibitors.
Groups of 4 female C57B1/6J mice were injected with 5 doses on 5 consecutive days of 12 ng/g body weight BA1, CMA or the well characterised islet β-cell toxin streptozotocin. Pancreases were removed on day 84 and 3 formalin-fixed sections per mouse were immunostained for insulin. The area of insulin-positive islets was measured on digital images using MCID software.

| Compound | No. islets per mm^2 pancreas section | effect on islet number and size | Median size |
| --- | --- | --- | --- |
| C/C=C/[C@H]1O[C@@](O)([C@@H](C)[C@H](O)[C@H](C)[C@H]2OC(=O)/C(OC)=C/C(C)=C/[C@@H](C)[C@@H](O)[C@@H](CC)[C@@H](O)[C@H](C)C/C(C)=C/C=C/[C@@H]2OC)C[C@@H](O[C@H]2C[C@@H](O)[C@H](OC(N)=O)[C@@H](C)O2)[C@@H]1C [CMA, concanamycin A] | 0.78 per mm^2 pancreas section | increased the number of small islets | 3170 μm^2 |
| CN(N=O)C(=O)N[C@H]1C(O)O[C@H](CO)[C@@H](O)[C@@H]1O (mixture of isomers) [Streptozotocin] | 0.46 per mm^2 pancreas section | reduces the number of islets but does not induce the formation of new islets | 5890 μm^2 |
